Here are results for 31 compounds from patent US9233979B2, “Compounds that are ERK inhibitors” (Merck Sharp & Dohme Corp., priority 2012, dated 2016).

The target of this assay is phosphorylated active hERK2 enzyme (Homo sapiens (Human), UniProt P28482). The assay is described as follows: Active Human ERK2 (hERK2) Activity Assay (IMAP-FP). The class given is biochemical. The settings on record: Table 6, 0.5 nM hERK2, 30 μM ATP, 10 point titration, read-out: AERK2 IC50. On the procedure: Assays Active Human ERK2 (hERK2) Activity Assay:
Activated ERK2 activity was determined in an IMAP-FP assay (Molecular Devices). […] The final reaction in each well of 25 μL consists of 0.5 nM hERK2, 900 nM unlabeled peptide, 80 nM labeled-peptide, and 30 μM ATP. Phosphorylation reactions were allowed to proceed for 60 minutes and were immediately quenched by the addition of 60 μL IMAP detection beads (1:1000 dilutions) in IMAP binding buffer (Molecular Devices) with 24 mM NaCl. Plates were read on EnVision reader after 60 minutes binding equilibration using Fluorescence Polarization protocol (Perkin Elmer).

The structures appear in SMILES notation.

Chain of phosphorylated active hERK2 enzyme (P28482 whole entry): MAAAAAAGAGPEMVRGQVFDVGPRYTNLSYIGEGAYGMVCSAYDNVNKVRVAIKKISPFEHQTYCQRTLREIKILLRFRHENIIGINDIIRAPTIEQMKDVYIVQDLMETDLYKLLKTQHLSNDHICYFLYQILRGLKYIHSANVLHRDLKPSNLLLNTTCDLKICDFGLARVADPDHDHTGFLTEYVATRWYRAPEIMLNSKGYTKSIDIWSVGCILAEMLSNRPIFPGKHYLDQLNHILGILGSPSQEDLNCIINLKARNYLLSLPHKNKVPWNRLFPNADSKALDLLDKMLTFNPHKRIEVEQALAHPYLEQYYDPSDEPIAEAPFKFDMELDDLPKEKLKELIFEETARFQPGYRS

What is called IC50 is the concentration needed to halve the response being measured. Turning to `C[C@H](Nc1n[nH]c2cc(NC(=O)N[C@H](C)c3ccccc3)ncc12)c1ccccn1` [Example 86, 1-[(1R)-1-phenylethyl]-3-(3-{[(1S)-1-pyridin-2-ylethyl]amino}-1H-pyrazolo[4,3-c]-pyridin-6-yl)urea], the IC50 was determined as 4.7 nM.

As for `C[C@@H](NC(=O)Nc1cc2[nH]nc(N[C@H](C)c3ccccn3)c2cn1)c1ccccc1` [Example 87, 1-[(1R)-1-phenylethyl]-3-(3-{[(1R)-1-pyridin-2-ylethyl]amino}-1H-pyrazolo[4,3-c]-pyridin-6-yl)urea], the IC50 stood at 13.4 nM.

On to `C[C@@H](NC(=O)Nc1cc2[nH]nc(N[C@@H]3COC[C@H]3F)c2cn1)c1ccccc1` [Example 88, 1-(3-{[(3R,4S)-4-fluorotetrahydrofuran-3-yl]amino}-1H-pyrazolo[4,3-c]-pyridin-6-yl)-3-[(1R)-1-phenylethyl]urea], for which the IC50 is 3.6 nM.

Regarding `C[C@@H](NC(=O)Nc1cc2[nH]nc(N3CCC4(CC3)COC4)c2cn1)c1ccccc1` [Example 89, 1-[3-(2-oxa-7-azaspiro[3.5]non-7-yl)-1H-pyrazolo[4,3-c]pyridin-6-yl]-3-[(1R)-1-phenylethyl]-urea], the IC50 is 9.1 nM.

For the compound `C[C@@H](NC(=O)Nc1cc2[nH]nc(N3CC[C@@H]3C)c2cn1)c1ccccc1` [Example 90, 1-{3-[(2S)-2-methylazetidin-1-yl]-1H-pyrazolo[4,3-c]-pyridin-6-yl}-3-[(1R)-1-phenylethyl]-urea], the IC50 worked out at 14.9 nM.

On to `C[C@@H]1CCN1c1n[nH]c2cc(NC(=O)N[C@H](C)c3ccccc3)ncc12` [Example 91, 1-{3-[(2R)-2-methylazetidin-1-yl]-1H-pyrazolo[4,3-c]-pyridin-6-yl}-3-[(1R)-1-phenylethyl]-urea], for which the IC50 was 52 nM.

For `C[C@@H](NC(=O)Nc1cc2[nH]nc(N3CC(C)(O)C3)c2cn1)c1ccccc1` [Example 92, 1-[3-(3-hydroxy-3-methylazetidin-1-yl)-1H-pyrazolo[4,3-c]-pyridin-6-yl]-3-[(1R)-1-phenylethyl]urea], the IC50 turned out to be 27.3 nM.

For the compound `C[C@@H](NC(=O)Nc1cc2[nH]nc(N3CC(C#N)C3)c2cn1)c1ccccc1` [Example 93, 1-[3-(3-cyanoazetidin-1-yl)-1H-pyrazolo[4,3-c]-pyridin-6-yl]-3-[(1R)-1-phenylethyl]urea], the IC50 turned out to be 9.9 nM.

Consider `C[C@@H](NC(=O)Nc1cc2[nH]nc(N3CC(C(C)(C)O)C3)c2cn1)c1ccccc1` [Example 94, 1-{3-[3-(1-hydroxy-1-methylethyl)-azetidin-1-yl]-1H-pyrazolo[4,3-c]-pyridin-6-yl}-3-[(1R)-1-phenylethyl]-urea], for which the IC50 was 25.4 nM.

With `C[C@@H](O)[C@@H](NC(=O)Nc1cc2[nH]nc(N3CCOCC3)c2cn1)c1ccc(F)cc1` [Example 97, 1-[(1S,2R)-1-(4-fluorophenyl)-2-hydroxypropyl]-3-(3-morpholin-4-yl-1H-pyrazolo[4,3-c]-pyridin-6-yl)urea], the IC50 was determined as 0.2 nM.

Regarding `C[C@H](O)[C@@H](NC(=O)Nc1cc2[nH]nc(N3CCOCC3)c2cn1)c1ccc(F)cc1` [Example 98, 1-[(1S,2S)-1-(4-fluorophenyl)-2-hydroxypropyl]-3-(3-morpholin-4-yl-1H-pyrazolo[4,3-c]-pyridin-6-yl)urea], the IC50 is 0.2 nM.

Take `CC(C)(O)[C@@H](NC(=O)Nc1cc2[nH]nc(N3CCOC(C(F)(F)F)C3)c2cn1)c1ccccc1` (stereo partly drawn) [Example 99, 1-[(1S)-2-hydroxy-2-methyl-1-phenylpropyl]-3-{3-[2-(trifluoromethyl)-morpholin-4-yl]-1H-pyrazolo[4,3-c]-pyridin-6-yl}urea]: the IC50 is 0.6 nM.

Turning to `CC(C)(O)[C@@H](NC(=O)Nc1cc2[nH]nc(N3CCC3)c2cn1)c1ccc(F)cc1` [Example 100, 1-(3-azetidin-1-yl-1H-pyrazolo[4,3-c]-pyridin-6-yl)-3-[(1S)-1-(4-fluorophenyl)-2-hydroxy-2-methylpropyl]urea], the IC50 was 1.1 nM.

As to `CC(C)(O)[C@@H](NC(=O)Nc1cc2[nH]nc(N3CCC3)c2c(CO)n1)c1ccc(F)cc1` [Example 101, 1-[3-azetidin-1-yl-4-(hydroxymethyl)-1H-pyrazolo[4,3-c]-pyridin-6-yl]-3-[(1S)-1-(4-fluorophenyl)-2-hydroxy-2-methylpropyl]urea], the IC50 stood at 0.9 nM.

Turning to `C[C@H]1CN(c2n[nH]c3cc(NC(=O)N[C@@H](c4ccccc4)C(C)(C)O)ncc23)C[C@H](C(F)(F)F)O1` [Example 102, 1-[(1S)-2-hydroxy-2-methyl-1-phenylpropyl]-3-{3-[(2S,6R)-2-methyl-6-(trifluoromethyl)-morpholin-4-yl]-1H-pyrazolo[4,3-c]-pyridin-6-yl}urea], the half-inhibitory concentration (IC50) was 2.7 nM.

`C[C@@H]1CN(c2n[nH]c3cc(NC(=O)N[C@@H](c4ccccc4)C(C)(C)O)ncc23)C[C@H](C(F)(F)F)O1` [Example 103, 1-[(1S)-2-hydroxy-2-methyl-1-phenylpropyl]-3-{3-[(2R,6R)-2-methyl-6-(trifluoromethyl)-morpholin-4-yl]-1H-pyrazolo[4,3-c]-pyridin-6-yl}urea]: the IC50 was determined as 1.1 nM.

For the compound `CC(C)(O)[C@@H](NC(=O)Nc1cc2[nH]nc(N3CCC3)c2cn1)c1ccccc1` [Example 104, 1-(3-azetidin-1-yl-1H-pyrazolo[4,3-c]pyridin-6-yl)-3-[(1S)-2-hydroxy-2-methyl-1-phenylpropyl]urea], the IC50 turned out to be 1.6 nM.

Turning to `C[C@@H](O)[C@@H](NC(=O)Nc1cc2[nH]nc(N3CCC3)c2cn1)c1ccc(F)cc1` [Example 105, 1-(3-azetidin-1-yl-1H-pyrazolo[4,3-c]pyridin-6-yl)-3-[(1S,2R)-1-(4-fluorophenyl)-2-hydroxypropyl]urea], the IC50 stood at 2.8 nM.

For `Cc1nc(NC(=O)N[C@@H](c2ccc(F)cc2)[C@@H](C)O)cc2[nH]nc(N3CCOCC3)c12` [Example 106, 1-((1S,2R)-1-(4-Fluorophenyl)-2-hydroxypropyl)-3-(4-methyl-3-morpholino-1H-pyrazolo[4,3-c]pyridin-6-yl)urea], the IC50 was found to be 0.5 nM.

`Cc1nc(NC(=O)N[C@@H](c2ccccc2)C(C)(C)O)cc2[nH]nc(N3CCOCC3)c12` [Example 107, 1-[(1S)-2-hydroxy-2-methyl-1-phenylpropyl]-3-(4-methyl-3-morpholin-4-yl-1H-pyrazolo[4,3-c]-pyridin-6-yl)urea]: the IC50 came out at 0.3 nM.

As for `C[C@@H](O)[C@@H](NC(=O)Nc1cc2[nH]nc(N3CCOCC3)c2c(CO)n1)c1ccc(F)cc1` [Example 108, 1-[(1S,2R)-1-(4-Fluorophenyl)-2-hydroxypropyl]-3-[4-(hydroxymethyl)-3-morpholin-4-yl-1H-pyrazolo[4,3-c]pyridin-6-yl]urea], the IC50 was 0.4 nM.

As to `CC(C)(O)[C@@H](NC(=O)Nc1cc2[nH]nc(N3CCOCC3)c2c(CO)n1)c1ccccc1` [Example 109, 1-[4-(hydroxymethyl)-3-morpholin-4-yl-1H-pyrazolo[4,3-c]-pyridin-6-yl]-3-[(1S)-2-hydroxy-2-methyl-1-phenylpropyl]urea], the IC50 is 0.3 nM.

Take `Cc1nc(NC(=O)N[C@@H](c2ccc(F)cc2)C(C)(C)O)cc2[nH]nc(N3CCC3)c12` [Example 110, 1-(3-azetidin-1-yl-4-methyl-1H-pyrazolo[4,3-c]-pyridin-6-yl)-3-[(1S)-1-(4-fluorophenyl)-2-hydroxy-2-methylpropyl]urea]: the IC50 is 1.3 nM.

Consider `C[C@@H](O)[C@@H](NC(=O)Nc1cc2[nH]nc(N3CC4CC3CO4)c2cn1)c1ccccc1` (stereo partly drawn) [Example 111, 1-[(1S,2R)-2-hydroxy-1-phenylpropyl]-3-[3-(2-oxa-5-azabicyclo[2.2.1]-hept-5-yl)-1H-pyrazolo[4,3-c]-pyridin-6-yl]urea], for which the IC50 was found to be 0.5 nM.

In the case of `[2H]C([2H])([2H])C([2H])([2H])Nc1n[nH]c2cc(NC(=O)N[C@H](C)c3ccccc3)ncc12` [Example 113, (R)-1-(3-((ethyl-D5)amino)-1H-pyrazolo[4,3-c]-pyridin-6-yl)-3-(1-phenylethyl)urea], the IC50 stood at 1.6 nM.

Take `[2H]C([2H])([2H])C(=O)Nc1n[nH]c2cc(NC(=O)N[C@H](C)c3ccccc3)ncc12` [Example 115, (R)-N-(6-(3-(1-phenylethyl)ureido)-1H-pyrazolo[4,3-c]pyridin-3-yl)(acetamide-D3)]: the IC50 was determined as 0.8 nM.

With `C[C@@H](NC(=O)Nc1cc2[nH]nc(Nc3ccc(F)cc3)c2cn1)c1ccccc1` [Example 116, 1-{3-[(4-fluorophenyl)-amino]-1H-pyrazolo[4,3-c]pyridin-6-yl}-3-[(1R)-1-phenylethyl]urea], the IC50 is 94.2 nM.

In the case of `O=C(Nc1cc2[nH]nc(Nc3ccccc3Cl)c2cn1)N[C@@H]1CCCOc2ccccc21` [Example 119, 1-{3-[(2-chlorophenyl)-amino]-1H-pyrazolo[4,3-c]pyridin-6-yl}-3-[(5R)-2,3,4,5-tetrahydro-1-benzoxepin-5-yl]urea], the IC50 amounted to 60.1 nM.

On to `COC[C@@H](NC(=O)Nc1cc2[nH]nc(Nc3ccccc3Cl)c2cn1)c1ccccc1` [Example 120, 1-{3-[(2-chlorophenyl)-amino]-1H-pyrazolo[4,3-c]pyridin-6-yl}-3-[(1S)-2-methoxy-1-phenylethyl]urea], for which the IC50 came to 27.2 nM.

In the case of `COc1ccccc1Nc1n[nH]c2cc(NC(=O)N[C@H](C)c3ccccc3)ncc12` [Example 121, 1-{3-[(2-methoxyphenyl)amino]-1H-pyrazolo[4,3-c]pyridin-6-yl}-3-[(1R)-1-phenylethyl]urea], the IC50 came to 24.5 nM.

As for `COC[C@@H](NC(=O)Nc1cc2[nH]nc(Nc3ccccc3OC)c2cn1)c1ccccc1` [Example 122, 1-{3-[(2-methoxyphenyl)-amino]-1H-pyrazolo[4,3-c]pyridin-6-yl}-3-[(1S)-2-methoxy-1-phenylethyl]urea], the IC50 was determined as 8.4 nM.
